Where a name gives a salt, the structure may show the parent alone.
How the values were obtained:
[1] = target: T1, recombinant human cIAP1-BIR3 protein (Homo sapiens, UniProt Q13490); experiment: Recombinant human c-IAP1-BIR3 biochemical assay (HTRF, peptide displacement); settings: 1.2 nM cIAP1-BIR3, 3 nM AbuRPF-K(5-Fam)-NH2 peptide, read-out: Protein binding IC50 (nM) c-IAP1
T1 construct: recombinant human cIAP1-BIR3 protein; purchased Reaction biology APT-11-370
How it was run: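 1.2 nM cIAP1-BIR3 preincubated 1 h at room temperature with compound (10 points, 4-fold, top 10 uM) in 20 mM HEPES pH 7.5, 50 mM NaCl, 1 mM DTT; 3 nM AbuRPF-K(5-Fam)-NH2 then added for 1 h, then anti-6His Tb cryptate for 1 h. 520/490 nm ratio; IC50 by four-parameter logistic fit.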

[2] = target: T2, recombinant human XIAP-BIR3 protein (Homo sapiens, UniProt P98170); experiment: Recombinant human XIAP-BIR3 biochemical assay (HTRF, peptide displacement); settings: 3.7 nM XIAP-BIR3, 7.6 nM AbuRPF-K(5-Fam)-NH2 peptide, read-out: Protein binding IC50 (nM) XIAP
T2 construct: recombinant human XIAP-BIR3 protein; purchased Reaction biology APT-11-374
T2 sequence (P98170 241-356 limits assumed): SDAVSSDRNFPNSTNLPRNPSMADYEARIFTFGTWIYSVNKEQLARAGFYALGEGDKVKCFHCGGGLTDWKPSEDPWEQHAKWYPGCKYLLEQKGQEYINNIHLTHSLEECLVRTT
How it was run: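 3.7 nM His-tagged XIAP-BIR3 was preincubated 1 h RT with compound (top 10 µM, 4-fold, 10 points) in 20 mM HEPES pH 7.5, 50 mM NaCl, 0.005% Tween-20, 1 mM DTT. 7.6 nM AbuRPF-K(5-Fam)-NH2 peptide was then added, followed by anti-6His Tb cryptate, 1 h each. HTRF 520/490 nm ratio; four-parameter logistic IC50.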

[3] = target: T3, recombinant human cIAP2-BIR3 protein (Homo sapiens, UniProt Q13489); experiment: Recombinant human c-IAP2-BIR3 biochemical assay (HTRF, peptide displacement); settings: 3.7 nM cIAP2-BIR3, 3.7 nM AbuRPF-K(5-Fam)-NH2 peptide, read-out: Protein binding IC50 (nM) c-IAP2
T3 construct: recombinant human cIAP2-BIR3 protein; purchased Reaction biology APT-11-372
T3 sequence (Q13489 238-349 limits assumed): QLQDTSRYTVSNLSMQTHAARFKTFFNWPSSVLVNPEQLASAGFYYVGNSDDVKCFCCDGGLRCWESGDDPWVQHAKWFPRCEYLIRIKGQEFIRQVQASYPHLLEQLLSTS
How it was run: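 3.7 nM protein pre-incubated 1 h at room temperature with compounds (top 10 uM, 4-fold, 10 points) in 20 mM HEPES pH 7.5, 50 mM NaCl, 0.005% Tween-20, 1 mM DTT. Then 3.7 nM AbuRPF-K(5-Fam)-NH2 for 1 h, then anti-6His Tb cryptate 1 h. IC50 from 520/490 nm HTRF ratio, four-parameter logistic fit.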

T1 sequence (Q13490 253-363 limits assumed): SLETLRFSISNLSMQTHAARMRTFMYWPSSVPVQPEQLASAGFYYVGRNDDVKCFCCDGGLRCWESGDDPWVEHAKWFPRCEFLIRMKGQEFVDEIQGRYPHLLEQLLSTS

Row | IC50 [1] [nM] | IC50 [2] [nM] | IC50 [3] [nM] | SMILES
1 | 0.19 | 5.2 | 0.33 | C[C@@H]1CN(CC(=O)N2c3cc(Cc4ccc(F)cc4)c(C(=O)N[C@H]4CCOC4)nc3OC[C@@H]2C)[C@@H](CN2[C@H](C)COC[C@H]2C)CN1 [Example 79, (S)-1-(2-((2R,5R)-2-(((3R,5R)-3,5-dimethylmorpholino)methyl)-5-methylpiperazin-1-yl)acetyl)-7-(4-fluorobenzyl)-2-methyl-N—((S)-tetrahydrofuran-3-yl)-2,3-dihydro-1H-pyrido[2,3-b][1,4]oxazine-6-carboxamide]
2 | 1.5 | 23 | 3.2 | C[C@@H]1CN(CC(=O)N2CCOc3nc(C(N)=O)c(Cc4ccc(F)cc4)cc32)[C@@H](CN2CCOC[C@H]2C)CN1 [Compound 3, 7-(4-fluorobenzyl)-1-(2-((2R,5R)-5-methyl-2-(((R)-3-methylmorpholino)methyl)piperazin-1-yl)acetyl)-2,3-dihydro-1H-pyrido[2,3-b][1,4]oxazine-6-carboxamide formate]
3 | 0.44 | 14 | 0.93 | C[C@@H]1CN(CC(=O)N2c3cc(Cc4ccc(F)cc4)c(CO)nc3OC[C@@H]2C)[C@@H](CN2CCOCC23CC3)CN1 [Compound 50, 2-((2R,5R)-2-((7-oxa-4-azaspiro[2.5]octan-4-yl)methyl)-5-methylpiperazin-1-yl)-1-((S)-7-(4-fluorobenzyl)-6-(hydroxymethyl)-2-methyl-2,3-dihydro-1H-pyrido[2,3-b][1,4]oxazin-1-yl)ethan-1-one]

— patent publication US12583866B2, “Pyrido[2,3-b][1,4]oxazines or tetrahydropyrido[2,3-b][1,4]oxazepines as IAP antagonists” (BEIGENE, LTD., priority 2020, dated 2026)
